{"source": "paper PMC7606612", "about": "“Identification of HMGA2 inhibitors by AlphaScreen-based ultra-high-throughput screening assays” (Scientific Reports, 2020)", "key": {"BTSC#83": {"test_system": "BTSC#83", "assay": "Light microscopy of morphology / differentiation, BTSC#83", "type": "cell-based", "details": "100 µM and 200 µM, 6 days"}, "[1]": {"target": "“AT-hook” peptide 3 (ATHP3) (Homo sapiens, UniProt P52926)", "assay": "Isothermal titration calorimetry (ITC), titration into ATHP3", "type": "binding", "description": "ITC experiments were conducted using a VP-ITC titration calorimeter (MicroCal, Inc., Northampton, MA) interfaced to a PC. Origin 7.0, supplied by the manufacturer was used for data acquisition. […] The heat liberated or absorbed is observed as a peak corresponding to the power required keeping the sample and reference cells at identical temperatures. The peak produced during the injection is converted to heat output by integration and corrected for cell volume and sample concentration. […] The net enthalpy for the titration reaction was determined by subtraction of the component heats of dilution."}, "[2]": {"test_system": "anaplastic thyroid carcinoma cell line 8505c", "assay": "Chromatin immunoprecipitation (ChIP) of HMGA2 on ID2 promoter regions A and B", "type": "cell-based, human", "details": "6 days", "text": "(§1) The role of HMGA1 and HMGA2 in regulating ID2 transcription was confirmed by analyzing its expression in mouse embryonic fibroblasts (MEFs) knock-out for HMGA1, HMGA2, and the A1/A2 double mutant, respectively. […] We identified two AT-rich regions, hereafter indicated as “region A” and “region B”, in the human ID2 promoter, containing the HMGA2 consensus sequence[26] (Table S2) for our ChIP experiments. Due to availability, the high proliferation rate, and the expression of HMGA proteins, the anaplastic thyroid carcinoma cell line 8505c was used.\nChromatin immunoprecipitation was performed as described. Briefly, for each sample, 5 × 10^6 cells were collected by trypsinization and cross-linked with 1% formaldehyde; after sonication, the samples were immunoprecipitated with 10 µL anti-HMGA2 antibody (Genetex) or with control normal rabbit IgG and the chromatin was extracted. qPCR amplification was performed on 6 µL of immunoprecipitated DNA, using primers amplifying regions A and B of the ID2 promoter (Table S2). Ct values of samples precipitated with anti-HMGA2 and IgG antibodies were normalized with Ct values of input DNA. Fold change enrichment was calculated in comparison to normalized IgG, using the 2^−ΔΔCt formula. P values were calculated by using one-way ANOVA followed by Sidak’s multiple comparison test."}, "HMGA2-DNA interactions [3]": {"target": "T1, HMGA2-DNA interactions (Mus musculus, UniProt P52927)", "T1 construct": "made in house", "T1 sequence (P52927 2-108 limits assumed)": "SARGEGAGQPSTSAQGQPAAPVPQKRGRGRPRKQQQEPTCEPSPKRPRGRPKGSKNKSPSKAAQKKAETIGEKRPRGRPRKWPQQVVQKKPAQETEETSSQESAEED", "assay": "Protein-DNA interaction ELISA (PDI-ELISA) assay", "type": "binding, mammalian", "details": "inhibition of HMGA2-DNA interactions, PDI-ELISA", "text": "The PDI-ELSA assays were described previously[33] and used to determine the inhibition IC50 against HMGA2-DNA interactions. The apparent inhibitory IC50 values were obtained using the following equation: y=min+(max-min/1+10^((x-logIC50)×Hillslope) , where x, y, max, and min represent the inhibitor’s concentration, the inhibition level, the maximum inhibition value, and the minimum inhibition value, respectively."}, "[4]": {"test_system": "anaplastic thyroid carcinoma cell line 8505c", "assay": "ID2 mRNA expression in 8505c cells", "type": "cell-based, human", "details": "200 and 400 µM", "text": "as §1\nThe single-cell suspension was obtained by mechanical disaggregation of the spheres and RNA was extracted 48 h later, by using Direct-zol RNA MiniPrep (Zymo Research). One μg of RNA was retrotranscribed, by using QuantiTect® Reverse Transcription Kit (Qiagen) and qRT-PCR was performed as described. The 2^–ΔΔCt formula was used to calculate the differential gene expression."}, "HMGA2-DNA interactions [5]": {"target": "T1, HMGA2-DNA interactions", "assay": "AlphaScreen primary uHTS assay of His-tagged HMGA2 binding to biotin-labeled DNA oligomer FL814", "parameters": "species or system mammalian", "description": "To address these limitations, we established a new assay using AlphaScreen technology. The assay entails binding a biotin-labeled DNA oligomer FL814 and His-tagged HMGA2 to streptavidin-coated donor beads and nickel chelate (Ni-NTA) acceptor beads, respectively (Fig. 1). A series of DNA binding studies were performed to determine the optimal conditions for the AlphaScreen Primary Assay (Fig. S1a–d). […] These two inhibitors are readily available for purchase and served as positive controls for HMGA2-DNA interaction inhibition in the assay.\nUsing a Labcyte Echo 555 acoustic dispenser 5 nL of DMSO were added to columns 1–4 and 45–48 of a white 1536 well plate, while 5 nL of 2 mM compounds in DMSO were added to columns 5–44. Using a Beckman BioRAPTR FRD bulk reagent dispenser 1 µL of assay buffer (30 mM Citrate, 300 mM NaCl, and 0.005% Tween 20) was added to columns 1 and 2. Next 1 µL of assay buffer containing 125 nM HMGA2 was added to columns 3–48 with a Beckman BioRAPTR FRD bulk reagent dispenser. Finally, 1 µL of assay buffer containing 25 nM FL814 was added to every well of the plate using a Beckman BioRAPTR FRD bulk reagent dispenser. The plate was then centrifuged at 200 × g for 1 min. After 30 min at room temperature, 2 µL of bead buffer (10 mM HEPES, 300 mM NaCl and 0.005% Tween 20) containing 20 µg/mL anti-6xHIS acceptor beads and 20 µg/mL streptavidin donor beads were dispensed into every well using a Beckman BioRAPTR FRD bulk reagent dispenser. The plates were then centrifuged at 200 × g for 1 min. After 1 h at room temperature the plates were read on a Perkin Elmer Envision multimode plate reader in AlphaScreen mode."}, "[6]": {"details": "no reference given; cited from earlier work"}}, "note": "Values joined by “and” are separate entries in the source; they are usually repeats but may differ in a detail not shown here. Identical values can stand only once.", "data": [{"smiles": "Cc1ccc(C(=O)Nc2ccc(S(=O)(=O)O)c3cc(S(=O)(=O)O)cc(S(=O)(=O)O)c23)cc1NC(=O)c1cccc(NC(=O)Nc2cccc(C(=O)Nc3cc(C(=O)Nc4ccc(S(=O)(=O)O)c5cc(S(=O)(=O)O)cc(S(=O)(=O)O)c45)ccc3C)c2)c1", "note": "[suramin]", "values": [{"measurement": "cell morphology / induction of differentiation", "setting": "BTSC#83", "value": "adhere to the bottom of the well and extend neurite-like structures"}, {"measurement": "− TΔS", "setting": "[1]", "value": 6.75, "unit": "kcal/mol"}, {"measurement": "Kd", "setting": "[1]; first line, read-out: ATHP3 Ka (M^−1) (converted)", "value": 24.6, "unit": "nM"}, {"measurement": "ATHP3 Binding site", "setting": "[1]; number of sites, first line", "value": 0.98}, {"measurement": "HMGA2 binding to ID2 promoter regions A and B (ChIP)", "setting": "[2]; 100 µM", "value": "did not detect significant HMGA2 binding reduction"}, {"measurement": "HMGA2 binding to ID2 promoter regions A and B (ChIP)", "setting": "[2]; 200 µM", "value": "drastic reduction in the enrichment"}, {"measurement": "IC50", "setting": "HMGA2-DNA interactions [3]", "value": "2780 ± 100", "unit": "nM"}, {"measurement": "mRNA expression level of ID2", "setting": "[4]", "value": "significantly decreased"}, {"measurement": "inhibition at 5 µM", "setting": "HMGA2-DNA interactions [5]; LOPAC1280 screen, final concentration of 5 µM", "value": "≥ 50", "unit": "%"}, {"measurement": "inhibition of HMGA2-DNA interactions (in words)", "setting": "HMGA2-DNA interactions [5]; confirmed hits that do not bind to DNA", "value": "strongly inhibit HMGA2-DNA interactions"}, {"measurement": "IC50", "setting": "HMGA2-DNA interactions [5]; titration, HMGA2-FL814 interactions, Fig. 3a", "value": "2580 nM and 2600 nM"}, {"measurement": "oral bioavailability", "setting": "[6]", "value": "not orally bioavailable"}]}]}
